Measured values as given in ChEMBL document CHEMBL5360614, “Quinoline Thiourea-Based Zinc Ionophores with Antibacterial Activity” (J Med Chem, 2023).
Values after ≈ are worked out from the molar mass of the structure shown. Active and inactive are the calls of the source. The calls are words filed in the database; no cut-off is given here.

Experiments:
Lipid bilayer [1] = assay: Induction of ionophore activity across EYPC:CHOL (8:2) large unilamellar vesicles assessed as transmembrane Zn2+ ion transport by measuring decrease in fluorescence intensity for HPTS dye at 10 uM preincubated for 3 mins followed by ZnCl2 addition and mesured after 7.5 mins by HPTS dye based fluorescence spectrophotometric analysis; conditions: filed as opener, time 10.5 min
Lipid bilayer [2] = assay: Induction of ionophore activity across EYPC:CHOL (8:2) large unilamellar vesicles assessed as transmembrane cation transport by measuring decrease in fluorescence intensity for HPTS dye preincubated for 3 mins followed by CsCl addition and mesured after 7.5 mins by HPTS dye based fluorescence spectrophotometric analysis; conditions: time 10.5 min
Lipid bilayer [3] = assay: Induction of ionophore activity across EYPC:CHOL (8:2) large unilamellar vesicles assessed as transmembrane cation transport by measuring decrease in fluorescence intensity for HPTS dye preincubated for 3 mins followed by CuCl2 addition and mesured after 7.5 mins by HPTS dye based fluorescence spectrophotometric analysis; conditions: filed as opener; time 10.5 min
Lipid bilayer [4] = assay: Induction of ionophore activity across EYPC:CHOL (8:2) large unilamellar vesicles assessed as transmembrane anion transport by measuring decrease in fluorescence intensity for HPTS dye preincubated for 3 mins followed by Zn(NO3)2 addition and mesured after 7.5 mins by HPTS dye based fluorescence spectrophotometric analysis; conditions: filed as opener; time 10.5 min
Staphylococcus aureus [5] = assay: Antibacterial activity against gentamicin-and methicillin-resistant Staphylococcus aureus ATCC 33592 assessed as reduction in bacterial growth incubated for 14 to 16 hrs by microbroth dilution method; type: functional; conditions: time 14-16 hrs
Staphylococcus aureus [6] = assay: Antibacterial activity against Staphylococcus aureus MTCC-96 assessed as reduction in bacterial growth incubated for 14 to 16 hrs in presence of 100 to 400 uM Zn(NO3)2 by microbroth dilution method; type: functional, organism-based; conditions: time 14-16 hrs
Lipid bilayer [7] = assay: Induction of ionophore activity across EYPC:CHOL (8:2) large unilamellar vesicles assessed as transmembrane cation transport by measuring decrease in fluorescence intensity for HPTS dye preincubated for 3 mins followed by MnCl2 addition and mesured after 7.5 mins by HPTS dye based fluorescence spectrophotometric analysis; conditions: time 10.5 min
Staphylococcus aureus [8] = assay: Antibacterial activity against Staphylococcus aureus MTCC-96 assessed as reduction in bacterial growth incubated for 14 to 16 hrs in presence of 400 uM ZnCl2 by microbroth dilution method; type: functional; conditions: time 14-16 hrs
Staphylococcus aureus [9] = assay: Antibacterial activity against Staphylococcus aureus MTCC-96 assessed as fold reduction in bacterial growth incubated for 14 to 16 hrs in presence of 400 uM ZnCl2 by microbroth dilution method; type: functional; conditions: time 14-16 hrs
Lipid bilayer [10] = assay: Induction of ionophore activity across EYPC:CHOL (8:2) large unilamellar vesicles assessed as transmembrane cation transport by measuring decrease in fluorescence intensity for HPTS dye preincubated for 3 mins followed by RbCl addition and mesured after 7.5 mins by HPTS dye based fluorescence spectrophotometric analysis; conditions: time 10.5 min
Staphylococcus aureus [11] = assay: Antibacterial activity against Staphylococcus aureus MTCC-96 assessed as reduction in bacterial growth incubated for 14 to 16 hrs in presence of 100 to 400 uM CsCl by microbroth dilution method; type: functional, organism-based; conditions: time 14-16 hrs
Staphylococcus aureus [12] = assay: Antibacterial activity against Staphylococcus aureus MTCC-96 assessed as resistance development by measuring fold increase in MIC and measured after 30 days by microbroth dilution method; type: functional; conditions: time 30 day
Staphylococcus aureus [13] = assay: Antibacterial activity against Staphylococcus aureus MTCC-96 assessed as resistance development by measuring fold increase in MIC and measured after 30 days in presence of ZnCl2 by microbroth dilution method; type: functional, organism-based; conditions: time 30.0 day
Lipid bilayer [14] = assay: Induction of ionophore activity across EYPC:CHOL (8:2) large unilamellar vesicles assessed as transmembrane anion transport by measuring decrease in fluorescence intensity for HPTS dye preincubated for 3 mins followed by ZnBr2 addition and mesured after 7.5 mins by HPTS dye based fluorescence spectrophotometric analysis; conditions: filed as opener; time 10.5 min
Staphylococcus aureus [15] = assay: Antibacterial activity against Staphylococcus aureus MTCC-96 assessed as reduction in bacterial growth incubated for 14 to 16 hrs in presence of 100 to 400 uM ZnBr2 by microbroth dilution method; type: functional, organism-based; conditions: time 14-16 hrs
Cell membrane = assay: Induction of cell membrane depolarization in Staphylococcus aureus MTCC-96 assessed as change in fluorescence intensity at 3.13 uM by DiSC3-5 dye based fluorescence method; type: subcellular
Staphylococcus aureus [16] = assay: Disruption of membrane integrity in Staphylococcus aureus MTCC-96 assessed as increase in fluorescence intensity at 4 to 8 uM by PI staining based fluorescence analysis; type: functional, organism-based; conditions: dose 4-8 µM
Lipid bilayer [17] = assay: Induction of ionophore activity across EYPC:CHOL (8:2) large unilamellar vesicles assessed as transmembrane anion transport by measuring decrease in fluorescence intensity for HPTS dye at 10 uM preincubated for 3 mins followed by ZnCl2 addition and mesured after 7.5 mins by HPTS dye based fluorescence spectrophotometric analysis; conditions: filed as opener, time 10.5 min
Lipid bilayer [18] = assay: Induction of ionophore activity across EYPC:CHOL (8:2) large unilamellar vesicles assessed as transmembrane cation transport by measuring decrease in fluorescence intensity for HPTS dye preincubated for 3 mins followed by MgCl2 addition and mesured after 7.5 mins by HPTS dye based fluorescence spectrophotometric analysis; conditions: time 10.5 min
A549 = assay: Cytotoxicity against human A549 cells assessed as reduction in cell viability at 1 to 100 uM incubated for 44 hrs by MTT assay; type: toxicity, cell-based; conditions: a549, 44 h, dose 1-100 µM
Staphylococcus aureus [19] = assay: Antibacterial activity against Staphylococcus aureus MTCC-96 assessed as reduction in bacterial growth incubated for 14 to 16 hrs in presence of 100 to 400 uM ZnSO4 by microbroth dilution method; type: functional, organism-based; conditions: time 14-16 hrs
Lipid bilayer [20] = assay: Induction of ionophore activity across EYPC:CHOL (8:2) large unilamellar vesicles assessed as transmembrane cation transport by measuring decrease in fluorescence intensity for HPTS dye preincubated for 3 mins followed by LiCl addition and mesured after 7.5 mins by HPTS dye based fluorescence spectrophotometric analysis; conditions: time 10.5 min
Lipid bilayer [21] = assay: Induction of ionophore activity across EYPC:CHOL (8:2) large unilamellar vesicles assessed as transmembrane cation transport by measuring decrease in fluorescence intensity for HPTS dye preincubated for 3 mins followed by CaCl2 addition and mesured after 7.5 mins by HPTS dye based fluorescence spectrophotometric analysis; conditions: time 10.5 min
Lipid bilayer [22] = assay: Induction of ionophore activity across EYPC:CHOL (8:2) large unilamellar vesicles assessed as transmembrane cation transport by measuring decrease in fluorescence intensity for HPTS dye preincubated for 3 mins followed by KCl addition and mesured after 7.5 mins by HPTS dye based fluorescence spectrophotometric analysis; conditions: time 10.5 min
Staphylococcus aureus [23] = assay: Antibacterial activity against Staphylococcus aureus MTCC-96 assessed as reduction in bacterial growth incubated for 14 to 16 hrs in presence of 100 to 400 uM CuCl2 by microbroth dilution method; type: functional, organism-based; conditions: time 14-16 hrs
Staphylococcus aureus [24] = assay: Bactericidal activity against Staphylococcus aureus MTCC-96 assessed as reduction in bacterial colony formation at 2 times MIC incubated upto 8 hrs in presence of ZnCl2 by agar-plate method; type: functional, organism-based
HCT-116 = assay: Cytotoxicity against human HCT-116 cells assessed as reduction in cell viability at 1 to 100 uM incubated for 44 hrs by MTT assay; type: toxicity, cell-based; conditions: hct-116, 44 h, dose 1-100 µM
Staphylococcus aureus [25] = assay: Antibacterial activity against Staphylococcus aureus MTCC-96 assessed as reduction in bacterial growth incubated for 14 to 16 hrs in presence of EGTA by microbroth dilution method; type: functional; conditions: time 14-16 hrs

Row | Structure (SMILES) | Activity (Lipid bilayer [1]) | Activity (Lipid bilayer [2]) | Activity (Lipid bilayer [3]) | Activity (Lipid bilayer [4]) | MIC (Staphylococcus aureus [5]) [µM] | Activity (Staphylococcus aureus [6]) | Activity (Lipid bilayer [7]) | MIC (Staphylococcus aureus [8]) [µM] | fold change (FC) (Staphylococcus aureus [9]) | Activity (Lipid bilayer [10]) | Activity (Staphylococcus aureus [11]) | fold change (FC) (Staphylococcus aureus [12]) | Activity (Staphylococcus aureus [13]) | Activity (Lipid bilayer [14]) | Activity (Staphylococcus aureus [15]) | Activity (Cell membrane) | Activity (Staphylococcus aureus [16]) | Activity (Lipid bilayer [17]) | Activity (Lipid bilayer [18]) | Activity (A549) | further results
1 | FC(F)(F)c1cc(NC(=S)Nc2cccc3cccnc23)cc(C(F)(F)F)c1 | Active | inactive | Active | Active | 3.13 (≈ 1.3 µg/mL) | Active | inactive | 0.47 | 6.65 | inactive | inactive | 16 | Active | Active | Active | inactive | inactive | Active | inactive | Non-Toxic | Activity (Staphylococcus aureus [19]): Active; Activity (Lipid bilayer [20]): inactive; Activity (Lipid bilayer [21]): inactive; Activity (Lipid bilayer [22]): inactive; Activity (Staphylococcus aureus [23]): inactive; Activity (Staphylococcus aureus [24]): Active; Activity (HCT-116): Non-Toxic; MIC (Staphylococcus aureus [25]): 6.25 µM
2 | FC(F)(F)c1cc(NC(=S)Nc2cccc3ccc(-n4cnc5ccccc54)nc23)cc(C(F)(F)F)c1 | Active | inactive | Active | Active | 3.13 (≈ 1.66 µg/mL) | Active | inactive | 0.47 | 6.65 | inactive | inactive | 14 | inactive | Active | Active | inactive | inactive | Active | inactive | Non-Toxic | Activity (Staphylococcus aureus [19]): Active; Activity (Lipid bilayer [20]): inactive; Activity (Lipid bilayer [21]): inactive; Activity (Lipid bilayer [22]): inactive; Activity (Staphylococcus aureus [23]): inactive; Activity (Staphylococcus aureus [24]): Active; Activity (HCT-116): Non-Toxic; MIC (Staphylococcus aureus [25]): 6.25 µM
